Laboratory results: paper PMC7391767, “Molecular mechanisms underlying menthol binding and activation of TRPM8 ion channel” (Nature Communications, 2020)
Several values for one entry are separate records, joined by “and”; a condition that tells them apart may be missing. Equal entries are not always repeated. Entries after “also recorded” stand apart in the source; their conditions may differ. Where two headings read alike, the source gives them in different places.

Legend:
Type in all cases: cell-based
[1] = molecular target: T1, TRPM8 point mutants at sites 840, 910, 916, 972 (Mus musculus, UniProt Q8R4D5, A910V); assay: Φ analysis based on single-channel recordings; conditions: TRPM8 910V, mean of single-channel recordings (1mM, 500um)
T1 construct: expressed in transfected cells; host or cells: HEK293T
T1 sequence (Q8R4D5 whole entry A910V): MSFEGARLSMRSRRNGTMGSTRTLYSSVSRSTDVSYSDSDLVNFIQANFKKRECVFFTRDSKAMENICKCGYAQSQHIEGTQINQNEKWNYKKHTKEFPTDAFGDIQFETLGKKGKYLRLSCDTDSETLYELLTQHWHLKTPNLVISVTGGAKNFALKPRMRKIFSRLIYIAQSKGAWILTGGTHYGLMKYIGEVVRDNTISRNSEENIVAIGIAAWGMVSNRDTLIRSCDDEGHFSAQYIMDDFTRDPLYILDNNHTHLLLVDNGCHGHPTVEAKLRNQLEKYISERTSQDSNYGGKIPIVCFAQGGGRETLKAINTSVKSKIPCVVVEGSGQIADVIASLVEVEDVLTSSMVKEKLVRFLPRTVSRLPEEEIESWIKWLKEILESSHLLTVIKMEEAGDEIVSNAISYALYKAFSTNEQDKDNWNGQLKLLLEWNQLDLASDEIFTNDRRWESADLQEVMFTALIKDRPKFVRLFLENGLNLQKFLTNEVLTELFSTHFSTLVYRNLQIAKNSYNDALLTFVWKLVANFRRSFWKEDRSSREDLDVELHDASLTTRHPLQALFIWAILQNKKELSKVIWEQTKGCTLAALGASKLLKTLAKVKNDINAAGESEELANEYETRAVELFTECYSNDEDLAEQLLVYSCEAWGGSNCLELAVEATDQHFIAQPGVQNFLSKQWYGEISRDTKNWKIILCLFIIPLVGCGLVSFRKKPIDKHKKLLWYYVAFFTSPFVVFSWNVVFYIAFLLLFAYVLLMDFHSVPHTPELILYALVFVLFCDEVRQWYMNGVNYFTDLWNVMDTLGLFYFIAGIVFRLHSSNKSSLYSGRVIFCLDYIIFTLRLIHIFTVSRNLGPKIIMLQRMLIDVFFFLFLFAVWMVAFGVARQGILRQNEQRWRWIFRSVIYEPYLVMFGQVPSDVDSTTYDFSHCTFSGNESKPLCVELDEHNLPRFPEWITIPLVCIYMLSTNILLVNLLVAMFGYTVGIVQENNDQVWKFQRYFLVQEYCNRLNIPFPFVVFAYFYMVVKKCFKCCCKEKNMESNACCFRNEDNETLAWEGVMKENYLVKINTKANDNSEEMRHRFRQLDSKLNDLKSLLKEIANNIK
Method: Patch-clamp recordings were performed with a HEKA EPC10 amplifier controlled by PatchMaster software (HEKA). Whole-cell recordings were performed at ±80 mV. Patch pipettes were prepared from borosilicate glass and fire-polished to resistance of ~4 MΩ. For whole-cell recording, serial resistance was compensated by 60%. For single-channel recordings, patch pipettes were fire-polished to a higher resistance of 6-to-10 MΩ and then recorded in the inside-out configuration. To maximize the chance of obtaining a patch with only one channel, single-channel recordings were performed about 8 h after transfection. A solution with 130 mM NaCl, 10 mM glucose, 0.2 mM EDTA, and 3 mM HEPES (pH 7.2) was used in both bath and pipette for either whole-cell or single-channel recordings. Membrane potential was clamped at +80 mV for single-channel recordings. Current was sampled at 10 kHz and filtered at 2.9 kHz. All recordings were performed at room temperature (22 °C) with the maximum variation of 1 °C.
We followed the principle of Φ-analysis described in published literatures in detail[17],[36],[48]. […] At such a high concentration, only the patches showing the activities of one channel was used for analysis. Single-channel data were processed by the QuB software[49] version 1.4 (ref. [50]). Opening and closing events were detected during idealization with the half amplitude method. Using the simple close ↔ open model (Fig. 6a), the forward and backward rates were determined with a deadtime of 0.3-to-0.4 ms. The equilibrium constant was calculated as the ratio of forward and backward rates. Opening rates and equilibrium constants for each mutant at the same residue site were plotted in log scale (Brønsted plot) before fitting with a linear function to determine the Φ value.

TRPM8 = molecular target: T2, TRPM8 (Mus musculus, UniProt Q8R4D5); assay: whole-cell patch-clamp recording in response to a voltage ramp; conditions: beyond −200 mV; near saturating menthol (0.5 mM)
T2 construct: expressed in transfected cells; host or cells: HEK293T
T2 sequence (Q8R4D5 whole entry): as the sequence (Q8R4D5 whole entry A910V) above, with V910A counted along it
Text: Supplementary Figure 8. Deep hyperpolarization antagonized me nthol activation of TRPM8 but not capsaicin activation of TRPV1. ( a) Representative whole-cell patch- clamp recording of menthol activation of TRPM8 in response to a voltage ramp. In the hyperpolarized voltage range, TRPM8 current increased first and then decreased […]
mM menthol. (b) Representative whole- cell patch- clamp recording of capsaicin activation of TRPV1 in response to a voltage ramp. In the hyperpolarized voltage range, TRPV1 current kept increasing linearly with the lowering of membrane potential, which […]
(1 picture or pasted object on this page, not shown here)

TRPM8 I846V = molecular target: T3, TRPM8 I846V (Mus musculus, UniProt Q8R4D5, I846V); assay: whole-cell patch-clamp and thermodynamic mutant cycle analysis
T3 construct: expressed in transfected cells; host or cells: HEK293T
T3 sequence (Q8R4D5 whole entry I846V): as the sequence (Q8R4D5 whole entry A910V) above, with I846V, V910A counted along it

ANAP-incorporated TRPM8 = molecular target: T4, ANAP-incorporated TRPM8 (Mus musculus, UniProt Q8R4D5, S819X); conditions: ANAP incorporation site S819; average shift, menthol activated vs resting state
T4 construct: expressed in transfected cells; host or cells: HEK293 cells, co-transfected with the pANAP vector
Method: As fluorescence emission peak of ANAP shifts to a longer wavelength in more hydrophilic environment, we measured the shift in ANAP emission peak to report conformational changes. Fluorescence properties of ANAP may also be affected by other factors such as temperature and pH[31], so we performed our ANAP experiments always at room temperature (22 ± 1°C). To control for changes in solution pH, we added 3 mM HEPES in ANAP imaging solution to buffer the pH at 7.2. We genetically integrated ANAP into a specific site on TRPM8 with special tRNA and synthetase encoded by pANAP vector (Fig. 5d).
L-ANAP methyl ester was purchased from AsisChem. pANAP vector was purchased from Addgene. ANAP was incorporated into TRPM8 by introducing a TAG amber stop codon mutation as previously reported. Briefly, after co-transfection of both TRPM8 and pANAP vectors, ANAP was directly added to the culture medium to the final concentration of 20 µM. After 1–2 days, ANAP-containing culture medium was completely changed. Cells were further cultured in ANAP-free medium overnight before experiments.
ANAP fluorescence was excited by the Ar laser with a 375/28 excitation filter, a T400lp dichroic mirror, and a 435LP emission filter on an inverted fluorescence microscope (Nikon TE2000-U) using a ×40 oil-immersion objective (NA 1.3). Emission spectrum of ANAP was imaged with an Acton SpectraPro 2150i spectrograph in conjunction with an optiMOS CCD camera (Qimaging, USA). We determined the ANAP emission peak value by fitting the emission spectrum with a skewed Gauss distribution in Igor Pro version 6.1 (WaveMatrix), and then the difference in emission peak values measured in the absence and presence of menthol was reported as the shift of ANAP emission.

CC(C)[C@@H]1CC[C@@H](C)C[C@H]1O [menthol, (−)-menthol]
logKeqave [1]: 0.7613 | ratesave (mean log forward rates) [1]: 3.348 | effect of deep hyperpolarization on ligand-activated channel (TRPM8): decreased towards zero; also recorded: closed the channel | L (equilibrium constant between closed and open states upon ligand binding), Ave (TRPM8 I846V): 5.981 | concentration–response curve value, ave (TRPM8 I846V; 1 microM): 0.07755 | concentration–response curve value, ave (TRPM8 I846V; 20 microM): 0.2593 | concentration–response curve value, ave (TRPM8 I846V; 100 microM): 0.6986 | concentration–response curve value, ave (TRPM8 I846V; 500 microM): 0.7722 | concentration–response curve value, ave (TRPM8 I846V; 2000 microM): 0.7707 | concentration–response curve value, single recording (TRPM8 I846V; 2000 microM): 0.8798 and 0.8106 and 0.8028 and 0.882 and 0.5707 and 0.6784 | Kd (TRPM8 I846V; calculated from concentration–response curves, read-out: Kd, Ave): 120 µM | Kd (TRPM8 I846V; read-out: Kd, single recording): 88.3 µM and 109 µM and 97.6 µM and 116 µM and 189 µM | Shifts_ave (ANAP-incorporated TRPM8): 0.65 nm
